Reference: publication PMC8494430, “Development of a fluorogenic ADAMTS-7 substrate” (Journal of Enzyme Inhibition and Medicinal Chemistry, 2021)

What was measured:
ADAMTS-7 = molecular target: T1, ADAMTS-7 (Homo sapiens, UniProt Q9UKP4); experiment: LTBP4S-A cleavage assay (SDS-PAGE, densitometry); format: biochemical
T1 construct: the recombinant construct ADAMTS7-T8, which lacks the C-terminal PLAC domain; made in house
T1 sequence (Q9UKP4 237-1631 limits assumed): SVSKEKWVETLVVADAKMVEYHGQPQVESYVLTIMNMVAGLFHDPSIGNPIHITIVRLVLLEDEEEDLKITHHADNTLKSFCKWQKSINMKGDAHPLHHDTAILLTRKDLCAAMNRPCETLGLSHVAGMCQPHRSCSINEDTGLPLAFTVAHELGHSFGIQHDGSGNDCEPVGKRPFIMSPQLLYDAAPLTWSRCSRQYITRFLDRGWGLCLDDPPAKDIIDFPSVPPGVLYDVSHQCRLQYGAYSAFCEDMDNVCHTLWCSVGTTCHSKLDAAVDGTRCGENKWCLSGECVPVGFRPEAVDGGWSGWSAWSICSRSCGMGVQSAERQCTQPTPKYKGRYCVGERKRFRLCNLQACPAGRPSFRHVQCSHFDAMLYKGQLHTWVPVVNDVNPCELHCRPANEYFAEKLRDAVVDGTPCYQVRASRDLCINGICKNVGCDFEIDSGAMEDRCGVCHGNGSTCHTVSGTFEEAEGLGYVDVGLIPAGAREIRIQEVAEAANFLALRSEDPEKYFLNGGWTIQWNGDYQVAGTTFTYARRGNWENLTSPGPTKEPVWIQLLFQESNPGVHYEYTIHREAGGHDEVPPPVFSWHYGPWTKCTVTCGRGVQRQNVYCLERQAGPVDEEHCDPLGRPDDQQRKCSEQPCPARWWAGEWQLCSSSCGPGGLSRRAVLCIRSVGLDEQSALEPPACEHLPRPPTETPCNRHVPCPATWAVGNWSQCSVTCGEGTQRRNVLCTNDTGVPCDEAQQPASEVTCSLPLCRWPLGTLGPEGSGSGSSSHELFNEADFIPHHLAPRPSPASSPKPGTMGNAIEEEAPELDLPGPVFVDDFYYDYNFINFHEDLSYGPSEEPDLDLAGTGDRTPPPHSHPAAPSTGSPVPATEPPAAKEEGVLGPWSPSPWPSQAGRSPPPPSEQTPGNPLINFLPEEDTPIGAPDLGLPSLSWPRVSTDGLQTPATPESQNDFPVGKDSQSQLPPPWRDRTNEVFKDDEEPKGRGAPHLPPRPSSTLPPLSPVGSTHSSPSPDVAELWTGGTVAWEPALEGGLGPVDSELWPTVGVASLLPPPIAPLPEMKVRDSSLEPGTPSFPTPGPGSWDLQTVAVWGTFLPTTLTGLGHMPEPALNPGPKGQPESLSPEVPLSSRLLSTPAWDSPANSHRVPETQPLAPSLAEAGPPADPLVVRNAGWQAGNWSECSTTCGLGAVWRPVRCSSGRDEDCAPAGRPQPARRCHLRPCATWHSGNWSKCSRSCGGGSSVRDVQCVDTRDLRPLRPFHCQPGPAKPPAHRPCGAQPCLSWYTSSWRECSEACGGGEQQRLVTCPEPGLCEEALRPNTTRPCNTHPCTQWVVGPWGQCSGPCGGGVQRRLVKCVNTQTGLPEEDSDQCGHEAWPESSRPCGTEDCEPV
Procedure: LTBP4S-A cleavage assays were performed as before[8] with small modifications. Here, ADAMTS-7 –T8 (19 nM) was pre-incubated either in the absence or presence of the indicated inhibitors for 2 h at 37 °C before addition of […] (5.6 µM). After 17 h, proteolysis was stopped by addition of Bolt^TM LDS Sample Buffer, 5% β-mercaptoethanol, and heating to 95 °C. Samples were frozen at […] before use. For SDS-PAGE analysis, 12% Bis-Tris Plus Gels (ThermoFisher) were used and stained for 6 h with Imperial protein stain (ThermoFisher). Gels were destained overnight in pure water at room temperature on an orbital shaker and scanned for analysis of LTBP4S-A cleavage bands. To accurately determine cleavage inhibition from each inhibitor, inhibition was quantified by densitometry of the bands corresponding to cleavage products using ImageJ software. The data were plotted using GraphPad Prism 7.0.

[1] = Appearance of solution upon dilution of peptide in assay buffer (solubility); format: physicochemical; conditions: 10 mM DMSO stock diluted in assay buffer
Procedure: The cleavage sites ^193Arg↓Ala^194 and ^195Glu↓Ala^196 were chosen to design the FRET substrate ATS7FP0 (Table 1). This peptide covers residues Ala^188-Ala^198 in LTBP4S and contains a FAM/TAMRA fluorophore/quencher pair. The quencher is covalently linked to the ε amino group of an extra C-terminal lysine residue. Stock solutions were routinely prepared at 10 mM in DMSO and stored at −80 °C. […] This was most likely due to the high content in hydrophobic amino acids of this peptide, which added to the hydrophobicity of the fluorophore/quencher pair. Nevertheless, ATS7FP0 generated fluorescence upon cleavage by ADAMTS-7 (Figure 2(A)). With the aim to improve both solubility and cleavage rate by ADAMTS-7, seven additional peptides were designed using the sequence of ATS7FP0 as a starting point. The N-terminal alanine residue present in ATS7FP0 was removed to generate peptide ATS7FP7 with a reduced aliphatic index (Table 1). […] To assess the effect of a P4′ proline residue on the cleavage rate, peptide ATS7FP7 was modified to generate ATS7FP8. […] Since we also determined that ADAMTS-7 prefers arginine in P1 (Figure 1(D)), we mutated one alanine residue in the parental sequence into arginine with the aim to improve both cleavage rate and hydrophilicity, thus generating peptide ATS7FP3. […]

With `O=C(NCCC[C@@H](NS(=O)(=O)c1ccc(OCc2ccc(F)cc2Cl)cc1)C(=O)NO)c1ccccc1` [EDV33] the IC50 (ADAMTS-7; ADAMTS-7 19 nM, 2 h preincubation, LTBP4S-A 5.6 μM, 17 h, read-out: IC50 (LTBP4S-A substrate)) was 112 ± 14 nM and the “increase of ADAMTS-7 inhibition relative to JG23” value (ADAMTS-7; against LTBP4S-A) was 5.1 fold.

With “Glu-Ala-Ala-Ala-Arg↓Ala-Glu↓Ala-Ala-Ala-Lys [ATS7FP7]” the “appearance of solution upon dilution in the assay buffer (solubility)” value [1] was “homogeneous”.
